PubChem BioAssay (NCI)
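Dose response: 5 concentrations. Exposure: 48 h. Format: 96-well plates. Endpoint: linear interpolation; highest concentration if not reached. TGI: total growth inhibition.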

Key:
Experiment in all cases: NCI anticancer screen, dose series, 48 h
SK-OV-3 ovarian = tested on: SK-OV-3 ovarian
UACC-257 melanoma = tested on: UACC-257 melanoma
SN12C renal = tested on: SN12C renal
K-562 leukemia = tested on: K-562 leukemia
MCF7 breast = tested on: MCF7 breast
HOP-92 NSCLC = tested on: HOP-92 NSCLC
TK-10 renal = tested on: TK-10 renal
SNB-19 CNS = tested on: SNB-19 CNS
SK-MEL-2 melanoma = tested on: SK-MEL-2 melanoma
HCT-116 colon = tested on: HCT-116 colon
HT29 colon = tested on: HT29 colon
IGROV1 ovarian = tested on: IGROV1 ovarian
PC-3 prostate = tested on: PC-3 prostate
M14 melanoma = tested on: M14 melanoma
CAKI-1 renal = tested on: CAKI-1 renal
OVCAR-3 ovarian = tested on: OVCAR-3 ovarian
NCI-H522 lung = tested on: NCI-H522 lung
UO-31 renal = tested on: UO-31 renal
A498 renal = tested on: A498 renal
HCC-2998 colon = tested on: HCC-2998 colon
786-0 renal = tested on: 786-0 renal
CCRF-CEM leukemia = tested on: CCRF-CEM leukemia
MDA-MB-435 = tested on: MDA-MB-435
SF-295 CNS = tested on: SF-295 CNS
SK-MEL-28 melanoma = tested on: SK-MEL-28 melanoma
U251 CNS = tested on: U251 CNS
MDA-MB-231 breast = tested on: MDA-MB-231 breast
RPMI-8226 leukemia = tested on: RPMI-8226 leukemia
HS 578T breast = tested on: HS 578T breast
NCI-H23 lung = tested on: NCI-H23 lung
OVCAR-4 ovarian = tested on: OVCAR-4 ovarian
MDA-N = tested on: MDA-N
HCT-15 colon = tested on: HCT-15 colon
UACC-62 melanoma = tested on: UACC-62 melanoma
MOLT-4 leukemia = tested on: MOLT-4 leukemia
SF-268 CNS = tested on: SF-268 CNS
A549 NSCLC = tested on: A549 NSCLC
T-47D breast = tested on: T-47D breast
RXF 393 renal = tested on: RXF 393 renal
BT-549 breast = tested on: BT-549 breast
SK-MEL-5 melanoma = tested on: SK-MEL-5 melanoma
OVCAR-5 ovarian = tested on: OVCAR-5 ovarian
NCI/ADR-RES ovarian = tested on: NCI/ADR-RES ovarian
ACHN renal = tested on: ACHN renal
MALME-3M melanoma = tested on: MALME-3M melanoma
NCI-H460 lung = tested on: NCI-H460 lung
DU-145 prostate = tested on: DU-145 prostate
EKVX NSCLC = tested on: EKVX NSCLC
HOP-62 NSCLC = tested on: HOP-62 NSCLC
SF-539 CNS = tested on: SF-539 CNS
SR leukemia = tested on: SR leukemia
NCI-H226 lung = tested on: NCI-H226 lung
COLO 205 colon = tested on: COLO 205 colon
HL-60(TB) leukemia = tested on: HL-60(TB) leukemia
OVCAR-8 ovarian = tested on: OVCAR-8 ovarian
KM12 colon = tested on: KM12 colon
SW-620 colon = tested on: SW-620 colon
SNB-75 CNS = tested on: SNB-75 CNS
LOX IMVI melanoma = tested on: LOX IMVI melanoma

SMILES: N#CC(=C1CCCCC1)c1nc2ccccc2o1
- TGI (SK-OV-3 ovarian): > 100 µM
- TGI (UACC-257 melanoma): > 100 µM
- TGI (SN12C renal): > 100 µM
- TGI (K-562 leukemia): > 100 µM
- TGI (MCF7 breast): > 100 µM
- TGI (HOP-92 NSCLC): > 100 µM
- TGI (TK-10 renal): > 100 µM
- TGI (SNB-19 CNS): > 100 µM
- TGI (SK-MEL-2 melanoma): > 100 µM
- TGI (HCT-116 colon): > 100 µM
- TGI (HT29 colon): > 100 µM
- TGI (IGROV1 ovarian): > 100 µM
- TGI (PC-3 prostate): > 100 µM
- TGI (M14 melanoma): > 100 µM
- TGI (CAKI-1 renal): > 100 µM
- TGI (OVCAR-3 ovarian): > 100 µM
- TGI (NCI-H522 lung): 60.6 µM
- TGI (UO-31 renal): > 100 µM
- TGI (A498 renal): > 100 µM
- TGI (HCC-2998 colon): > 100 µM
- TGI (786-0 renal): > 100 µM
- TGI (CCRF-CEM leukemia): > 100 µM
- TGI (MDA-MB-435): > 100 µM
- TGI (SF-295 CNS): > 100 µM
- TGI (SK-MEL-28 melanoma): > 100 µM
- TGI (U251 CNS): > 100 µM
- TGI (MDA-MB-231 breast): > 100 µM
- TGI (RPMI-8226 leukemia): 71.3 µM
- TGI (HS 578T breast): > 100 µM
- TGI (NCI-H23 lung): > 100 µM
- TGI (OVCAR-4 ovarian): > 100 µM
- TGI (MDA-N): > 100 µM
- TGI (HCT-15 colon): > 100 µM
- TGI (UACC-62 melanoma): > 100 µM
- TGI (MOLT-4 leukemia): > 100 µM
- TGI (SF-268 CNS): > 100 µM
- TGI (A549 NSCLC): > 100 µM
- TGI (T-47D breast): > 100 µM
- TGI (RXF 393 renal): > 100 µM
- TGI (BT-549 breast): 89.1 µM
- TGI (SK-MEL-5 melanoma): > 100 µM
- TGI (OVCAR-5 ovarian): > 100 µM
- TGI (NCI/ADR-RES ovarian): > 100 µM
- TGI (ACHN renal): > 100 µM
- TGI (MALME-3M melanoma): > 100 µM
- TGI (NCI-H460 lung): > 100 µM
- TGI (DU-145 prostate): > 100 µM
- TGI (EKVX NSCLC): 89.4 µM
- TGI (HOP-62 NSCLC): > 100 µM
- TGI (SF-539 CNS): 64.4 µM
- TGI (SR leukemia): > 100 µM
- TGI (NCI-H226 lung): > 100 µM
- TGI (COLO 205 colon): 33.7 µM
- TGI (HL-60(TB) leukemia): 75 µM
- TGI (OVCAR-8 ovarian): > 100 µM
- TGI (KM12 colon): > 100 µM

SMILES: CCN(CC)CCCn1c(=O)c2ccccc2n2c3c(=O)n(C)c(=O)n(C)c3nc12
- TGI (SK-OV-3 ovarian): 14.7 µM
- TGI (UACC-257 melanoma): 26.2 µM
- TGI (SN12C renal): 18.6 µM
- TGI (SW-620 colon): 29.1 µM
- TGI (K-562 leukemia): 33.6 µM
- TGI (MCF7 breast): > 100 µM
- TGI (HOP-92 NSCLC): 16.4 µM
- TGI (TK-10 renal): 38.9 µM
- TGI (SNB-19 CNS): 35.3 µM
- TGI (SK-MEL-2 melanoma): 35 µM
- TGI (HCT-116 colon): 21.6 µM
- TGI (HT29 colon): 24 µM
- TGI (IGROV1 ovarian): 26.2 µM
- TGI (PC-3 prostate): 23 µM
- TGI (M14 melanoma): 25.1 µM
- TGI (CAKI-1 renal): 15.1 µM
- TGI (OVCAR-3 ovarian): 33.6 µM
- TGI (NCI-H522 lung): 21.9 µM
- TGI (UO-31 renal): 17.7 µM
- TGI (HCC-2998 colon): 22 µM
- TGI (786-0 renal): 18.6 µM
- TGI (CCRF-CEM leukemia): 35 µM
- TGI (MDA-MB-435): 27.5 µM
- TGI (SF-295 CNS): 15.6 µM
- TGI (SK-MEL-28 melanoma): 30.2 µM
- TGI (U251 CNS): 23.3 µM
- TGI (MDA-MB-231 breast): 30.1 µM
- TGI (RPMI-8226 leukemia): 49.7 µM
- TGI (HS 578T breast): 45.6 µM
- TGI (NCI-H23 lung): 21.2 µM
- TGI (OVCAR-4 ovarian): 22.6 µM
- TGI (MDA-N): 28 µM
- TGI (SNB-75 CNS): 18.6 µM
- TGI (HCT-15 colon): 25.4 µM
- TGI (UACC-62 melanoma): 24.1 µM
- TGI (MOLT-4 leukemia): 8.92 µM
- TGI (SF-268 CNS): 23 µM
- TGI (A549 NSCLC): 10.4 µM
- TGI (T-47D breast): 49.8 µM
- TGI (RXF 393 renal): 45.8 µM
- TGI (BT-549 breast): 17.6 µM
- TGI (SK-MEL-5 melanoma): 15 µM
- TGI (OVCAR-5 ovarian): 32.9 µM
- TGI (NCI/ADR-RES ovarian): 47.2 µM
- TGI (LOX IMVI melanoma): 15.4 µM
- TGI (ACHN renal): 4.17 µM
- TGI (MALME-3M melanoma): 21.4 µM
- TGI (NCI-H460 lung): 4.06 µM
- TGI (DU-145 prostate): 10.6 µM
- TGI (EKVX NSCLC): 36.6 µM
- TGI (HOP-62 NSCLC): 15.1 µM
- TGI (SF-539 CNS): 22 µM
- TGI (SR leukemia): 3.37 µM
- TGI (NCI-H226 lung): 14.3 µM
- TGI (COLO 205 colon): 20.6 µM
- TGI (HL-60(TB) leukemia): 9.08 µM
- TGI (OVCAR-8 ovarian): 23.4 µM
- TGI (KM12 colon): 19.8 µM
